Data set [1] in a line: Measurement of thermodynamic solubility. It is filed as physicochemical. To be noted: aqueous buffer, thermodynamic from solid, room temperature. The procedure:
II. Measurement of Thermodynamic Solubility
1. Solutions for Thermodynamic Solubility
Buffer A (pH 2.0): 50 mM phosphate buffer, with a pH value of 2.0.
Buffer B (pH 7.4): 50 mM phosphate buffer, with a pH value of 7.4.
50% acetonitrile solution and 50% buffer (A, B) were mixed together to obtain a diluent. 10 mM (20 μL/compound) stock solution was added to acetonitrile (480 μL/compound), and mixed with the buffer (A, B) (500 μL/compound) to obtain 200 μM UV detection standard solution. The 200 μM UV detection standard solution was diluted with the diluent 10 times or 200 times the amount of the standard solution, so as to acquire 20 μM or 1 μM UV standard solution. 1, 20, and 200 μM UV standard solutions were taken as standard samples for thermodynamic solubility test.
No less than 2 mg of a sample powder was weighed and placed in a Whatman miniuniprep vial. If it was required to test the thermodynamic solubility of the sample in multiple buffers (A, B), an independent vial was demanded for each test. 450 μL of the buffer (A, B) was respectively added to each Whatman miniuniprep vial. After the buffer was added, a piston cover of the Whatman miniuniprep functioning to filter was put on and pressed above a liquid surface, such that a filter screen was in contact with the buffer (A, B) during the shaking. The solubility sample was shaken in a vortex manner for 1 minute, and phenomenon of the solution was recorded. The sample was shaken at 600 rpm at a room temperature (approximately 22˜25° C.) for 24 hours. The filtering cover of Whatman Miniunipreps was pressed to a bottom, to obtain a filtrate of the sample solubility solution. All sample vials should be recorded for insoluble substances before and after the filtration and leakage phenomenon thereof. The buffer (A, B) was 50-fold diluted to obtain a sample diluent.
3 UV standard solutions, from low concentration to high concentration, were injected into HPLC, and then the diluent and the supernatant of the compound to be tested were injected. The sample to be tested was in duplicate. Integration was carried out for UV chromatographic peaks. A standard curve was established by simulation and the thermodynamic solubility of the sample was calculated. HPLC conditions were as follows.

Data set [2] can be described thus: Test for permeability across Caco2. Format: in vitro ADME. To be noted: human, Caco-2. The procedure: 2. Test for Permeability Across Caco2
A sample for test was dissolved in dimethyl sulfoxide (DMSO) or other suitable solvents, to be prepared into 10 mM stock solution. A suitable internal standard
Fenoterol, propranolol, and digoxin acted as low-permeability control, high-permeability control, and P-gp (P-glycoprotein) substrate, respectively, in the present research. The stock solutions of these compounds were prepared with DMSO, stocked at 2-8° C., and valid for use within 3 months.
In the present project, a Hank's balanced salt buffer containing 10 mM HEPES was used as a transport buffer.
Caco-2 cells were cultivated using MEM culture media (Minimum Essential Media), with a culture condition of 37±1° C., 5% CO2, and saturated relative humidity. Afterwards, the cells were inoculated into a BD Transwell-96-well plate, with an inoculation density of 1×10^5 cells/cm^2, then the cells were placed in a carbon dioxide incubator to be incubated for 21-28 days, and then used for a transport experiment.
The sample for test and digoxin with donation concentration of 2 μM were administered in two directions (direction A-B and direction B-A), each in duplicate. Fenoterol and propranolol each with test concentration of 2 μM were administered in a single direction (direction A-B), each in duplicate.
A solution to be used was placed in a 37±1° C. water bath kettle to be pre-incubated for 30 minutes. The donor solution and the receiver solution were respectively added to corresponding sides of well of cell plate (to each apical sides and each basolateral sides, 75 μL and 250 μL of samples were added respectively), and experiment of bidirectional transport was started. After addition of the samples, the cell plate was placed in a 37±1° C., 5% CO2 incubator with saturated relative humidity to be incubated for 120 minutes.
The samples were all centrifuged at 3220 g for 10 minutes after being shaken in a vortex manner. A suitable volume of a supernatant was transferred to a sample analyzing plate. If analysis was not carried out immediately after the plate was sealed, the plate was stored at 2-8° C. The analysis was carried out through a method of LC/MS/MS.
The sample for test, the fenoterol control, propranolol control, and digoxin were analyzed in a semiquantitative manner, and specific values of analytes to a peak area of the internal standard were taken as concentration of the controls.
A general note: Passage across Caco-2 layers is used to estimate intestinal permeability.

[3] abbreviates: 50 mM phosphate buffer pH 2.0, 24 hours, read-out: thermodynamic solubility (pH: 2.0).
Where [4] appears, read: 50 mM phosphate buffer pH 7.4, 24 hours, read-out: thermodynamic solubility (pH: 7.4).

Each structure is given as a SMILES string. In brackets after ≈: the same amount, converted by molar mass. Read-outs that look alike come from different tables or passages of the source.

Usually solubility (thermodynamic) stands for solubility found after equilibrating the solid with the medium. As usually defined, the Papp A→B is the apparent permeability from the apical to the basolateral side of a cell layer. One may read the Papp B→A as how fast a substance crosses the layer from the basolateral side.

In the case of `NC(=O)NCCSc1nonc1/C(=N/O)Nc1ccc(F)c(Br)c1` [Compound 0231], the thermodynamic solubility at 24 h in data set [1] (setting [3]) is 155 µM (≈ 65 µg/mL); in data set [1] (setting [4]), 125 µM (≈ 52.4 µg/mL). The Papp A→B at 120 min, 2 µM in data set [2] worked out at 2.58 ×10⁻⁶ cm/s. The Papp B→A at 120 min, 2 µM in data set [2] worked out at 20.1 ×10⁻⁶ cm/s.

On to `NS(=O)(=O)NCCSc1nonc1/C(=N/O)Nc1ccc(F)c(Br)c1` [Compound 0117], for which the solubility (thermodynamic) at 24 h in data set [1] (setting [3]) was determined as 2620 µM (≈ 1190 µg/mL). The solubility (thermodynamic) at 24 h in data set [1] (setting [4]) was 2610 µM (≈ 1190 µg/mL). In data set [2], this molecule gave a Papp A→B at 120 min, 2 µM of 2.97 ×10⁻⁶ cm/s and a basolateral-to-apical permeability (Papp B→A) at 120 min, 2 µM of 12.2 ×10⁻⁶ cm/s.

As for `NS(=O)(=O)NCCOc1nonc1/C(=N/O)Nc1ccc(F)c(Br)c1` [Compound 0015], the solubility (thermodynamic) at 24 h in data set [1] (setting [3]) is 138 µM (≈ 60.6 µg/mL); in data set [1] (setting [4]), 298 µM (≈ 131 µg/mL).

`NS(=O)(=O)NCCNc1nonc1C(=NO)Nc1ccc(F)c(Br)c1` [Compound 360, INCB024360, reference compound]: the solubility (thermodynamic) at 24 h in data set [1] (setting [3]) was determined as 65 µM (≈ 28.5 µg/mL). Besides, the thermodynamic solubility at 24 h in data set [1] (setting [4]) stood at 160 µM (≈ 70.1 µg/mL). Further, in data set [2], the Papp A→B at 120 min, 2 µM was 0.39 ×10⁻⁶ cm/s and the Papp B→A at 120 min, 2 µM stood at 19.6 ×10⁻⁶ cm/s.

These data come from patent US20190169140A1, “IDO1 INHIBITOR AND PREPARATION METHOD AND APPLICATION THEREOF” (SHANDONG LUYE PHARMACEUTICAL CO., LTD., priority 2016, published 2019).
